Source: the supplement of paper PMC5908809

Tests used:
[1] = system: normal NK cells expanded with K562-aAPC; test: percent inhibition of viability; higher = more inhibition; settings: 72 h, IL-2 2.5 ng/mL
Protocol: (§1)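 Drug sensitivity and resistance testing on K562-aAPC-expanded normal NK cells: 5 concentrations (10-fold steps over a 10,000-fold range), 72 h at 37 °C, viability by CellTiter-Glo normalised to DMSO and benzethonium chloride controls; DSS from the fitted curve.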

[2] = system: normal NK cells expanded with K562-aAPC; test: drug sensitivity score (DSS) (DSS units); higher = more sensitive; extreme values may be limits of the assay; settings: 72 h; IL-2 2.5 ng/mL
Protocol: as §1

NK-YS (IL-2 2.5 ng/mL) [3] = test: percent inhibition of viability; higher = more inhibition; settings: 72 h
[4] = system: normal primary NK cells, pool 2 (3 donors) (IL-2 2.5 ng/mL); test: as above; settings: 72 h
YT (IL-2 2.5 ng/mL) [5] = test: as above; settings: 72 h
[6] = system: normal primary NK cells, pool 3 (3 donors) (IL-2 2.5 ng/mL); test: as above; settings: 72 h
SNK-6 (IL-2 2.5 ng/mL) [7] = test: as above; settings: 72 h
KAI3 (IL-2 2.5 ng/mL) [8] = test: as above; settings: 72 h
NKL (IL-2 2.5 ng/mL) [9] = test: as above; settings: 72 h
KHYG-1 (IL-2 2.5 ng/mL) [10] = test: as above; settings: 72 h
IMC-1 (IL-2 20 ng/mL) [11] = test: as above; settings: 72 h
[12] = system: normal primary NK cells, pool 1 (3 donors) (IL-2 2.5 ng/mL); test: as above; settings: 72 h
DERL-7 (IL-2 2.5 ng/mL) [13] = test: as above; settings: 72 h
NK-92 (IL-2 2.5 ng/mL) [14] = test: as above; settings: 72 h
[15] = system: normal primary NK cells, pool 1 (3 donors), resting (IL-2 0 ng/mL); test: as above; settings: 72 h
NK-YS (IL-2 2.5 ng/mL) [16] = test: drug sensitivity score (DSS) (DSS units); higher = more sensitive; extreme values may be limits of the assay; settings: 72 h
[17] = system: normal primary NK cells, pool 2 (3 donors) (IL-2 2.5 ng/mL); test: as above; settings: 72 h
YT (IL-2 2.5 ng/mL) [18] = test: as above; settings: 72 h
[19] = system: normal primary NK cells, pool 3 (3 donors) (IL-2 2.5 ng/mL); test: as above; settings: 72 h
SNK-6 (IL-2 2.5 ng/mL) [20] = test: as above; settings: 72 h
KAI3 (IL-2 2.5 ng/mL) [21] = test: as above; settings: 72 h
NKL (IL-2 2.5 ng/mL) [22] = test: as above; settings: 72 h
KHYG-1 (IL-2 2.5 ng/mL) [23] = test: as above; settings: 72 h
IMC-1 (IL-2 20 ng/mL) [24] = test: as above; settings: 72 h
[25] = system: normal primary NK cells, pool 1 (3 donors) (IL-2 2.5 ng/mL); test: as above; settings: 72 h
DERL-7 (IL-2 2.5 ng/mL) [26] = test: as above; settings: 72 h
NK-92 (IL-2 2.5 ng/mL) [27] = test: as above; settings: 72 h
[28] = system: normal primary NK cells, pool 1 (3 donors), resting (IL-2 0 ng/mL); test: as above; settings: 72 h

CN(c1ncccc1CNc1nc(Nc2ccc3c(c2)CC(=O)N3)ncc1C(F)(F)F)S(C)(=O)=O (max concentration tested 10000 nM)
percent inhibition of viability [%]
Settings | 1 nM | 10 nM | 100 nM | 1000 nM | 10000 nM
DERL-7 (IL-2 2.5 ng/mL) [13] | -3.04 | -1.94 | -4.92 | 14.9 | 99.9
IMC-1 (IL-2 20 ng/mL) [11] | -1.02 | -1.57 | 1.51 | 2.71 | 97.8
KAI3 (IL-2 2.5 ng/mL) [8] | -4.38 | -3.17 | -1.99 | 15.1 | 94.9
KHYG-1 (IL-2 2.5 ng/mL) [10] | 1.46 | -1.82 | -1.38 | 42.5 | 95.7
NK-92 (IL-2 2.5 ng/mL) [14] | -15.3 | -22 | -13 | 1.77 | 94.6
NK-YS (IL-2 2.5 ng/mL) [3] | 1.14 | -3.29 | -8.54 | 31.5 | 92.8
NKL (IL-2 2.5 ng/mL) [9] | -0.23 | -12.4 | -5.82 | 24.1 | 95
SNK-6 (IL-2 2.5 ng/mL) [7] | 8.22 | -2.6 | -15.8 | 2.42 | 59.8
YT (IL-2 2.5 ng/mL) [5] | 2.65 | -2.39 | -3.31 | 24.6 | 95.2
[1] | -0.87 | -5.24 | -0.38 | 6.43 | 99.8
[4] | -12.4 | -9.66 | -11.1 | -4.87 | 94.8
[6] | -12.7 | -6.19 | -9.86 | -12.6 | 97.7
[12] | -2.69 | -13.7 | -10.8 | 10 | 97.2
[15] | -20.5 | -23.2 | -40 | -70.9 | 88.9

Settings | drug sensitivity score
DERL-7 (IL-2 2.5 ng/mL) [26] | 8
IMC-1 (IL-2 20 ng/mL) [24] | 5.8
KAI3 (IL-2 2.5 ng/mL) [21] | 7.77
KHYG-1 (IL-2 2.5 ng/mL) [23] | 10.8
NK-92 (IL-2 2.5 ng/mL) [27] | 5.49
NK-YS (IL-2 2.5 ng/mL) [16] | 9.57
NKL (IL-2 2.5 ng/mL) [22] | 8.95
SNK-6 (IL-2 2.5 ng/mL) [20] | 3.56
YT (IL-2 2.5 ng/mL) [18] | 9.01
[2] | 6.5
[17] | 4.9
[19] | 4.64
[25] | 7.02
[28] | 3.17

O=C(Nc1ccncc1)C(=O)c1cn(Cc2ccc(Cl)cc2)c2ccccc12 [Indibulin] (max concentration tested 10000 nM)
percent inhibition of viability [%]
Settings | 1 nM | 10 nM | 100 nM | 1000 nM | 10000 nM
DERL-7 (IL-2 2.5 ng/mL) [13] | 0.04 | 6.67 | 4.75 | 46.8 | 89.2
IMC-1 (IL-2 20 ng/mL) [11] | -3.14 | 0.7 | 4.01 | 92.4 | 98.2
KAI3 (IL-2 2.5 ng/mL) [8] | 3.69 | 14.7 | 33 | 55.2 | 49.6
KHYG-1 (IL-2 2.5 ng/mL) [10] | -4.72 | 2.71 | 48.2 | 102 | 96
NK-92 (IL-2 2.5 ng/mL) [14] | -6.37 | 25.8 | 53.4 | 90.8 | 88.7
NK-YS (IL-2 2.5 ng/mL) [3] | -6.38 | 5.31 | 41.8 | 72.1 | 62.7
NKL (IL-2 2.5 ng/mL) [9] | -12.2 | -11.9 | 51.8 | 86.5 | 83.6
SNK-6 (IL-2 2.5 ng/mL) [7] | 23.1 | 63.2 | 78.4 | 84 | 80.9
YT (IL-2 2.5 ng/mL) [5] | -4.48 | 2.55 | 34.7 | 90.4 | 92
[1] | 0.45 | -0.15 | 0.03 | 26.6 | 49.8
[4] | -0.63 | -6.55 | 0.37 | 1.94 | 2.69
[6] | -1.93 | -8.2 | 1.19 | 5.32 | 11.4
[12] | -10.2 | -6.02 | -8.45 | -10.4 | -3.72
[15] | -7.61 | -0.32 | 20.6 | 8.83 | 10.7

Settings | drug sensitivity score
DERL-7 (IL-2 2.5 ng/mL) [26] | 10.5
IMC-1 (IL-2 20 ng/mL) [24] | 17.3
KAI3 (IL-2 2.5 ng/mL) [21] | 14.6
KHYG-1 (IL-2 2.5 ng/mL) [23] | 24
NK-92 (IL-2 2.5 ng/mL) [27] | 24.3
NK-YS (IL-2 2.5 ng/mL) [16] | 18.2
NKL (IL-2 2.5 ng/mL) [22] | 21.9
SNK-6 (IL-2 2.5 ng/mL) [20] | 35
YT (IL-2 2.5 ng/mL) [18] | 20.8
[2] | 5.97
[17] | 0
[19] | 0.07
[25] | 0
[28] | 0.77

O=NN(CCCl)C(=O)NCCCl [Carmustine] (max concentration tested 10000 nM)
percent inhibition of viability [%]
Settings | 1 nM | 10 nM | 100 nM | 1000 nM | 10000 nM
DERL-7 (IL-2 2.5 ng/mL) [13] | 5.36 | 1.21 | 3.36 | -4.79 | -4.35
IMC-1 (IL-2 20 ng/mL) [11] | -8.03 | -3.09 | -2.96 | 3.55 | 8.41
KAI3 (IL-2 2.5 ng/mL) [8] | 12.9 | 6.82 | 6.77 | 13.6 | 17.8
KHYG-1 (IL-2 2.5 ng/mL) [10] | -12.5 | -8.6 | -6.75 | 0.23 | 1.87
NK-92 (IL-2 2.5 ng/mL) [14] | -3.64 | -0.92 | 5.06 | 12.7 | 8.79
NK-YS (IL-2 2.5 ng/mL) [3] | -3.2 | -2.47 | -1.96 | 2.21 | 7.95
NKL (IL-2 2.5 ng/mL) [9] | 4.96 | 5.53 | 6.04 | 16.2 | 15.6
SNK-6 (IL-2 2.5 ng/mL) [7] | -5.81 | -6.45 | 1.48 | -7.81 | -8.51
YT (IL-2 2.5 ng/mL) [5] | -9.42 | -5.55 | -4.43 | -1.14 | 11
[1] | -3.33 | -8.02 | -3.23 | 5.49 | 10.2
[4] | -2.54 | 3.84 | 0.64 | 0.07 | 9.39
[6] | -2.97 | 5.49 | 5.6 | 3.01 | 4.59
[12] | 4.94 | 8.26 | 6.5 | 0.38 | 7.88
[15] | 9.22 | 19.6 | 23.1 | 5.64 | 15.2

Settings | drug sensitivity score
DERL-7 (IL-2 2.5 ng/mL) [26] | 0
IMC-1 (IL-2 20 ng/mL) [24] | 0
KAI3 (IL-2 2.5 ng/mL) [21] | 0
KHYG-1 (IL-2 2.5 ng/mL) [23] | 0
NK-92 (IL-2 2.5 ng/mL) [27] | 1.02
NK-YS (IL-2 2.5 ng/mL) [16] | 0
NKL (IL-2 2.5 ng/mL) [22] | 1.26
SNK-6 (IL-2 2.5 ng/mL) [20] | 0
YT (IL-2 2.5 ng/mL) [18] | 0
[2] | 0.01
[17] | 0
[19] | 0
[25] | 0
[28] | 0
